What was measured:
[1] = target: T1, hFASN enzyme (full length) (Homo sapiens, UniProt P49327); assay: Fatty Acid Synthase (FASN) inhibition scintillation proximity assay; assay type: biochemical; conditions: for inhibition at 10 µM: read-out: Human FASN % inhibition @ 10 μM, 10 μM test compound; for IC50: read-out: Human FASN pIC50 (converted)
T1 construct: 10 μL hFASN enzyme (full length, 300 ng, purified in house); made in house
Method in brief: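 Read-out relies on hydrophobic ³H-palmitate product, formed from ³H-acetyl-CoA and malonyl-CoA, binding streptavidin imaging beads, measured at 610±20 nm after at least 24 h. Full-length enzyme (300 ng) in phosphate buffer pH 7.5 with DTT; eight compound concentrations, 0.01–30 μM.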

[2] = system: PC-3M-Luc-C6 prostate cells; assay: In vitro PC-3M-Luc-C6 prostate cell proliferation assay in lipid reduced medium; assay type: cell-based; conditions: 96 h, read-out: pIC50 PC-3M-Luc-C6 prostate cell (converted)
[3] = system: A2780 ovarian cells; assay: A2780 ovarian cell proliferation assay in lipid reduced medium, with palmitate (MTT); assay type: cell-based; conditions: Homo sapiens, A2780, 96 h; read-out: pIC50 A2780 Ovarian Cell, With Palmitate (converted)
Method in brief: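 In this palmitate-supplemented format, compound dilutions (30 μM down to 0.01 μM) are added to cells in lipid-reduced serum with 25 μM palmitate, 0.2% fatty-acid-free BSA and 0.25% ethanol. After four days (96 h) MTT absorbance at 544 nm is recorded and fitted by minimum sum of squares.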

[4] = target: Fatty Acid Synthase Keto-reductase Domain (FASN KR) (Homo sapiens, UniProt P49327); assay: Fatty Acid Synthase keto-reductase domain (FASN KR) inhibition, NADPH oxidation at 340 nm
Experimental: After 20 minutes incubation at room temperature the plate was measured again (T2).
The decrease in absorbance was calculated as (Absorbance before incubation T1)−(Absorbance following incubation T2).
A plot of Controlmin versus test compound concentration was fitted to a 4-parameter logistic curve using a non-linear least squares regression method.

[5] = system: LNCaP-Vancouver prostate cells; assay: In vitro LNCaP Vancouver prostate cell proliferation assay in lipid reduced medium; assay type: cell-based; conditions: read-out: pIC50 LNCaP_Vancouver prostate cell (converted)
[6] = system: A2780 ovarian cells; assay: A2780 ovarian cell proliferation assay in lipid reduced medium, without palmitate (MTT); assay type: cell-based; conditions: Homo sapiens, A2780, 96 h; read-out: pIC50 A2780 Ovarian Cell, Without Palmitate (converted)

Fatty Acid Synthase Keto-reductase Domain (FASN KR), sequence (P49327 whole entry, the tested form may be a part): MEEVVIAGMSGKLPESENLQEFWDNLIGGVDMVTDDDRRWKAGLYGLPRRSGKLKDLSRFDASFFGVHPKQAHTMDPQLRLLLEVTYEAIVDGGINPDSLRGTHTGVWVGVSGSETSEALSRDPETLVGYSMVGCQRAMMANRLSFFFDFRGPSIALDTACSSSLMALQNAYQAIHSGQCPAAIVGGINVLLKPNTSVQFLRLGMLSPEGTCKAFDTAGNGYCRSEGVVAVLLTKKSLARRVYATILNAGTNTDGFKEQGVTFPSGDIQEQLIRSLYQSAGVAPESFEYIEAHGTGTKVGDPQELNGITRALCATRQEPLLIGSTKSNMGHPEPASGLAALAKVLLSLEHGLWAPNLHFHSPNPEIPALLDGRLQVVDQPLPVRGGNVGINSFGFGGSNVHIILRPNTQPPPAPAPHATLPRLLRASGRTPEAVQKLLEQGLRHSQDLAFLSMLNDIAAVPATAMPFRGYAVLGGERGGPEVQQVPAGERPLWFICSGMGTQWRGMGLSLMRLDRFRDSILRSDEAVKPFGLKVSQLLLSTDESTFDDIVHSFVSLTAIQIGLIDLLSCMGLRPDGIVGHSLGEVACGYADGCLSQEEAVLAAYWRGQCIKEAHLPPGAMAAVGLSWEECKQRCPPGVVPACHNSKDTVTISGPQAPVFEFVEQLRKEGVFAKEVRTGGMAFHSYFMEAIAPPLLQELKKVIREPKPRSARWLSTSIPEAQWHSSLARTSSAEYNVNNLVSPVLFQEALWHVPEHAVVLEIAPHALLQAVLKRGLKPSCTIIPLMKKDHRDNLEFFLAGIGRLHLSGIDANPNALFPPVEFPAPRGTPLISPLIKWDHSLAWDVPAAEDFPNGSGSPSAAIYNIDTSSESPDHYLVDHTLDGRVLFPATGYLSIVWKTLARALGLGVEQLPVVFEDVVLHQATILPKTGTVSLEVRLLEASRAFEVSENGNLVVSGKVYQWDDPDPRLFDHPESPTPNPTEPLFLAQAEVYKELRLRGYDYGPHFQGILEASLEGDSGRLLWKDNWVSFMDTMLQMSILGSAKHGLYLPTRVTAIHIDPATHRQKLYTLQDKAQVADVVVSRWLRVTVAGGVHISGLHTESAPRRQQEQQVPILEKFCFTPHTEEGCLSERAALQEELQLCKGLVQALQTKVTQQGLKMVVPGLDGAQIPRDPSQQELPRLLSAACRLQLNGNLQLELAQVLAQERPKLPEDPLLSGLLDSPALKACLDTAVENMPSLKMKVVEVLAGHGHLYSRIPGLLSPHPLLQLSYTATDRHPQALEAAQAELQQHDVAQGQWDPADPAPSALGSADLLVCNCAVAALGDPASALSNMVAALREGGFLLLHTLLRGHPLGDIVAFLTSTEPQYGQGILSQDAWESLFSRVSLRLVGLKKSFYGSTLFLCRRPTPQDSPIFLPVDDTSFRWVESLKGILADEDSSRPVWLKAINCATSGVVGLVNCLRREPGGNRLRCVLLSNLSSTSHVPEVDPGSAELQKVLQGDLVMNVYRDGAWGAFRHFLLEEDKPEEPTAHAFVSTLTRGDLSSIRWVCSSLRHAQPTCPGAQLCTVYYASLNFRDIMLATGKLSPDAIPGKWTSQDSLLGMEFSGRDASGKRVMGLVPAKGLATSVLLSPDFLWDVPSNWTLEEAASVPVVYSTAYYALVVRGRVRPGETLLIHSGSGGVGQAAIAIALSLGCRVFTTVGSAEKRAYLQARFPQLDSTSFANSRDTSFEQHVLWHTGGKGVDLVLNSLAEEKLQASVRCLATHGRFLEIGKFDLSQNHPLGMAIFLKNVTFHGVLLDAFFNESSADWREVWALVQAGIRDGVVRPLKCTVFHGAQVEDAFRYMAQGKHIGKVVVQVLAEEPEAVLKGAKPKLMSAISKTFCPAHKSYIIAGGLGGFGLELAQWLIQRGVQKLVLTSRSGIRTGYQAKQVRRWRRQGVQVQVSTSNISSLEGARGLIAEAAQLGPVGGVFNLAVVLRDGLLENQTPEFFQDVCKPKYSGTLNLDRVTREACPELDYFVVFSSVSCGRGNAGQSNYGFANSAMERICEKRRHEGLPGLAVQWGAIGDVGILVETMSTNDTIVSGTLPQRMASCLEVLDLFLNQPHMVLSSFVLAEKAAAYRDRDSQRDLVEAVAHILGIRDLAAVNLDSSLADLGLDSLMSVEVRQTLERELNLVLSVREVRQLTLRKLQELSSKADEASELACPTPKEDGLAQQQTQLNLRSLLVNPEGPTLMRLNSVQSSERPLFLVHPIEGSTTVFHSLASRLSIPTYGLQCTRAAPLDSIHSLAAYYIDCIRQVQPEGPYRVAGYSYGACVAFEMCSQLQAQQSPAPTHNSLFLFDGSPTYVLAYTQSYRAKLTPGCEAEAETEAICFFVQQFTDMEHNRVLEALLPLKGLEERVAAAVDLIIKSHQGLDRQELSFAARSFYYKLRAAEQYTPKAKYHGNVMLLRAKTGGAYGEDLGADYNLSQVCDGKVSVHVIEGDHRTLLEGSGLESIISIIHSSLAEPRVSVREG
T1 sequence (P49327 whole entry): as the sequence (P49327 whole entry, the tested form may be a part) above

SMILES	inhibition at 10 µM [1]	IC50 [1]	IC50 [2]	IC50 [3]	IC50 [4]	IC50 [5]	IC50 [6]
Cc1cc2cc(-c3ccc(C4=NC5(CC5)C(=O)N4C[C@@H]4CCN(C(=O)C5CC5)C4)c(C)c3)ccc2[nH]1 [compound 317]	103%	57.5 nM	51.3 nM	> 10000 nM	58.9 nM	257 nM	24.5 nM
Cc1cc2cc(-c3ccc(C4=NC5(CC5)C(=O)N4C[C@@H]4CCN(C(=O)C5CC5)C4)c(F)c3)ccc2[nH]1 [compound 319, (R)-6-((1-(cyclopropanecarbonyl)pyrrolidin-3-yl)methyl)-5-(2-fluoro-4-(2-methyl-1H-indol-5-yl)phenyl)-4,6-diazaspiro[2.4]hept-4-en-7-one]	105%	28.8 nM	18.6 nM	> 10000 nM	53.7 nM	112 nM	~13.5 nM
O=C(C1CC1)N1CC(CN2C(=O)C3(CC3)N=C2c2ccc(-c3ccc4cc(Cl)ccc4c3)cc2F)C1 [compound 320, 5-(4-(6-chloronaphthalen-2-yl)-2-fluorophenyl)-6-((1-(cyclopropanecarbonyl)azetidin-3-yl)methyl)-4,6-diazaspiro[2.4]hept-4-en-7-one]	102%	25.7 nM	50.1 nM	6460 nM	~26.9 nM	251 nM	25.1 nM
Cc1cc(-c2ccc3cc(Cl)ccc3c2)ccc1C1=NC2(CC2)C(=O)N1CC1CN(C(=O)C2(C)CC2)C1 [compound 321, 5-(4-(6-chloronaphthalen-2-yl)-2-methylphenyl)-6-((1-(1-methylcyclopropanecarbonyl)azetidin-3-yl)methyl)-4,6-diazaspiro[2.4]hept-4-en-7-one]	99%	30.2 nM	50.1 nM	4370 nM	47.9 nM	182 nM	17.8 nM
Cn1cc(-c2ccc(-c3ccc(C4=NC5(CC5)C(=O)N4CC4CN(C(=O)C5CC5)C4)c(F)c3)cc2)cn1 [compound 322, 6-((1-(cyclopropanecarbonyl)azetidin-3-yl)methyl)-5-(3-fluoro-4′-(1-methyl-1H-pyrazol-4-yl)-[1,1′-biphenyl]-4-yl)-4,6-diazaspiro[2.4]hept-4-en-7-one]	102%	38 nM	~34.7 nM	> 10000 nM	79.4 nM	151 nM	14.8 nM
Cn1cc(-c2ccc(-c3ccc(C4=NC5(CC5)C(=O)N4C[C@@H]4CCN(C(=O)C5CC5)C4)c(F)c3)cc2)cn1 [compound 323, (R)-6-((1-(cyclopropanecarbonyl)pyrrolidin-3-yl)methyl)-5-(3-fluoro-4′-(1-methyl-1H-pyrazol-4-yl)-[1,1′-biphenyl]-4-yl)-4,6-diazaspiro[2.4]hept-4-en-7-one]	101%	25.1 nM	8.32 nM	> 10000 nM	44.7 nM	33.1 nM	~2.88 nM
O=C(C1CC1)N1CC(CN2C(=O)C3(CC3)N=C2c2ccc(-c3ccc4ccc(F)cc4c3)cc2F)C1 [compound 324, 6-((1-(cyclopropanecarbonyl)azetidin-3-yl)methyl)-5-(2-fluoro-4-(7-fluoronaphthalen-2-yl)phenyl)-4,6-diazaspiro[2.4]hept-4-en-7-one]	105%	32.4 nM	~30.2 nM	> 10000 nM	67.6 nM	158 nM	19.5 nM
Cc1cc(-c2ccc(-c3cnn(C(C)C)c3)cc2)ccc1C1=NC2(CC2)C(=O)N1CC1CN(C(=O)C2CC2)C1 [compound 325, 6-((1-(cyclopropanecarbonyl)azetidin-3-yl)methyl)-5-(4′-(1-isopropyl-1H-pyrazol-4-yl)-3-methyl-[1,1′-biphenyl]-4-yl)-4,6-diazaspiro[2.4]hept-4-en-7-one]	100%	79.4 nM	83.2 nM	> 10000 nM	490 nM	363 nM	~49 nM
Cc1cc(-c2ccc(-c3cnn(C4CC4)c3)cc2)ccc1C1=NC2(CC2)C(=O)N1CC1CN(C(=O)C2CC2)C1 [compound 326, 6-((1-(cyclopropanecarbonyl)azetidin-3-yl)methyl)-5-(4′-(1-cyclopropyl-1H-pyrazol-4-yl)-3-methyl-[1,1′-biphenyl]-4-yl)-4,6-diazaspiro[2.4]hept-4-en-7-one]	103%	39.8 nM	49 nM	9120 nM	407 nM	170 nM	~12 nM
CC(C)n1cc(-c2ccc(-c3ccc(C4=NC5(CC5)C(=O)N4CC4CN(C(=O)C5CC5)C4)c(F)c3)cc2)cn1 [compound 327, 6-((1-(cyclopropanecarbonyl)azetidin-3-yl)methyl)-5-(3-fluoro-4′-(1-isopropyl-1H-pyrazol-4-yl)-[1,1′-biphenyl]-4-yl)-4,6-diazaspiro[2.4]hept-4-en-7-one]	104%	32.4 nM	34.7 nM	8130 nM	158 nM	138 nM	10.5 nM
O=C(C1CC1)N1CC(CN2C(=O)C3(CC3)N=C2c2ccc(-c3ccc(-c4cnn(C5CC5)c4)cc3)cc2F)C1 [compound 328, 6-((1-(cyclopropanecarbonyl)azetidin-3-yl)methyl)-5-(4′-(1-cyclopropyl-1H-pyrazol-4-yl)-3-fluoro-[1,1′-biphenyl]-4-yl)-4,6-diazaspiro[2.4]hept-4-en-7-one]	98%	31.6 nM	16.2 nM	10000 nM	79.4 nM	53.7 nM	5.13 nM
CC(C)n1cc(-c2ccc(-c3ccc(C4=NC5(CC5)C(=O)N4CC4CN(C(=O)C5CC5)C4)cc3)cc2)cn1 [compound 331]	100%	66.1 nM	148 nM	5620 nM	245 nM	617 nM	69.2 nM
COc1ccc2cc(-c3ccc(C4=NC5(CC5)C(=O)N4CC4CN(C(=O)C5(C)CC5)C4)c(C)c3)ccc2c1 [compound 332, 5-(4-(6-methoxynaphthalen-2-yl)-2-methylphenyl)-6-((1-(1-methylcyclopropanecarbonyl)azetidin-3-yl)methyl)-4,6-diazaspiro[2.4]hept-4-en-7-one]	100%	18.6 nM	12.3 nM	4170 nM	60.3 nM	107 nM	12.3 nM
Cc1cc(-c2ccc(-c3cnn(C)c3)cc2)ccc1C1=NC2(CC2)C(=O)N1CC1CN(C(=O)C2CC2)C1 [compound 333, 6-((1-(cyclopropanecarbonyl)azetidin-3-yl)methyl)-5-(3-methyl-4′-(1-methyl-1H-pyrazol-4-yl)-[1,1′-biphenyl]-4-yl)-4,6-diazaspiro[2.4]hept-4-en-7-one]	98%	55 nM	~339 nM	> 10000 nM	178 nM	537 nM	~33.1 nM
Cc1ccc2cc(-c3ccc(C4=NC5(CC5)C(=O)N4CC4CN(C(=O)C5(C)CC5)C4)c(C)c3)ccc2c1 [compound 334, 5-(2-methyl-4-(6-methylnaphthalen-2-yl)phenyl)-6-((1-(1-methylcyclopropanecarbonyl)azetidin-3-yl)methyl)-4,6-diazaspiro[2.4]hept-4-en-7-one]	97%	21.9 nM	37.2 nM	6920 nM	43.7 nM	162 nM	24 nM
Cc1cc(-c2ccc3cnn(C)c3c2)ccc1C1=NC2(CC2)C(=O)N1CC1CN(C(=O)C2(C)CC2)C1 [compound 335, 5-(2-methyl-4-(1-methyl-1H-indazol-6-yl)phenyl)-6-((1-(1-methylcyclopropanecarbonyl)azetidin-3-yl)methyl)-4,6-diazaspiro[2.4]hept-4-en-7-one]	105%	64.6 nM	~115 nM	> 10000 nM	166 nM	603 nM	138 nM
Cc1cc(-c2ccc(-c3cnn(C4CC4)c3)cc2)ccc1C1=NC2(CC2)C(=O)N1CC1CN(C(=O)C2(C)CC2)C1 [compound 337, 5-(4′-(1-cyclopropyl-1H-pyrazol-4-yl)-3-methyl-[1,1′-biphenyl]-4-yl)-6-((1-(1-methylcyclopropanecarbonyl)azetidin-3-yl)methyl)-4,6-diazaspiro[2.4]hept-4-en-7-one]	105%	36.3 nM	20.4 nM	6920 nM	79.4 nM	79.4 nM	38 nM

Source: patent US10077261B2, “Imidazolin-5-one derivative useful as FASN inhibitors for the treatment of cancer” (Janssen Pharmaceutica NV, priority 2012, dated 2018)
